One series relates to human pancreatic islets. As to the kind of experiment: Oxidative stress (ROS, NO) in cultured human pancreatic islets. In kind it is cell-based. Particulars: 50 ng/mL, 30 min prior exposure, 2 hours culture. The method, then:
Human islets were recovered from organ donors and placed into overnight culture in DMEM with 2.8 mM glucose and 10% FCS. Islets were then washed and transferred into serum free DMEM for 6 h prior to experiments to assess induction of oxidative stress. Islets were then cultured for 2-24 hours in the presence of 50 ng/mL of IFNγ, IL-1β, IL-23 or IL-24, or the free fatty acid palmitate at 0.5 mM, with or without exposure to 50 ng/mL IL-22 beginning 30 min prior to the introduction of the stress inducing cytokines or lipids. To test whether endogenous IL-22 affects human islet physiology the islets were treated for 2-24 hours with an anti-IL-22R1 (receptor) antibody at 10 μg/mL. ROS and nitrite were measured using the DCFDA and Greiss assays as described above for murine islets, and quantitative RT-PCR used to assess gene expression.

Series [1] is described as follows: Clearance of IL-22 and IL-22 fusion proteins from serum. In kind it is in vivo, C57BL/6 mice. Particulars: after administration to mice. The method, then:
Targeting to IL-22 to pancreas: Non-obese male C57BL/6 at 6-8 weeks of age. Each IL-22-GLP-1R ligand fusion protein or hIL-22 was administered i.p. at 256 ng/g of IL-22 and the molar equivalents for the individual fusion proteins (n=3 per regimen). IL-22-ScaB1 was administered at […]. Control mice received a PBS control i.p. injection only.
Serum concentrations of IL-22 and the IL-22-GLP-1R ligand fusion proteins were determined using a human IL-22 double-determinant ELISA (Biolegend; 434505) against a standard curve for the individual fusion proteins.

The next series has as its system 3T3 adipocytes. As to the kind of experiment: 6-NBDG glucose uptake by 3T3 adipocytes with insulin secreted by islets. The series is classed as cell-based. Particulars: insulin secreted by islets from HFD mice treated with 100 ng/g. The method, then: 3T3 cells were differentiated into adipocytes as previously described, and all experiments were carried out on day 8 post differentiation. 1×10^4 cells were seeded in a black 96-well plate and cultured in serum free 2.8 mM glucose media prior to the addition of insulin. Cells were treated for 1 h with 2 ng/mL recombinant insulin or total insulin from islet secretions at 37° C. as described in figure legends. Subsequently, cells were incubated with 6-(N-(7-nitrobenx-2-oxa-1,3-diazol-4-yl)amino)-6-deoxyglucose (6-NBDG) (MOLECULAR PROBES) for 20 min before cells were washed with PBS and glucose uptake was determined using a POLARstar Omega plate reader.

Series [2] has as its system mice with high fat diet-induced obesity (HFDIO). As to the kind of experiment: HFDIO Experiment 1: high fat diet induced obesity, treated last 3 weeks of 16. In kind it is in vivo, C57BL/6 male mice. From the text:
All mice were housed in sterilized, filter-topped cages in a conventional clean facility. Six to eight week old C57BL/6 male mice were fed ad libitum on a high fat diet containing 46% of available energy as saturated fat, 34% carbohydrate, 20% protein (Speciality feeds, SF04-027). Or on normal chow containing less than 10% saturated fat (GOLDMIX, 126575). Cages of mice were randomly allocated to the experimental groups by random draw. Investigators were not blinded to treatment by there were no subjective assessments made.
Total insulin and proinsulin were measured in supernatant from islet cultures or in serum from mice using commercially obtained ELISA kits from MILLIPORE and MERCODIA, respectively. The molar insulin concentration was determined by subtracting the molar proinsulin concentration from molar total insulin, and then the serum proinsulin:insulin ratio was calculated.
From […] of the diet, mice were treated with 20 ng/g i.p. recombinant murine IL-22 twice weekly (R&D SYSTEMS), 3 μg/g anti-IL-23 weekly (ELI-LILLY), 0.1 mg/mouse anti-IL-24 weekly (PROTEIN TECH), or 0.5 mg/mouse irrelevant isotype control antibody, sacrificed and sampled.
Fasted i.p. glucose tolerance tests (2 g/kg glucose) and insulin tolerance tests (0.25 U/kg insulin; Humalog, Lilly) were performed at the times indicated in the Figure Legends.
Pancreatic tissue was fixed in 10% neutral buffered formalin and processed using standard histological techniques. Standard immunohistochemical and immunofluorescent staining methods were used to determine the presence of Grp78, insulin, glucagon, IL-22R1, proinsulin and ATF6-GFP.
The area in pixels/mm^2 was determined for Grp78 and insulin (immunofluorescence) and proinsulin (immunohistochemisty) in the core of β-cell rich area of 3-4 islets per mouse (n=6-10 mice) using IMAGEJ software version 1.45s. Live cell imagine in MIN6N8 cells was carries out at 37° C. in 5% CO2 in a chamber using an OLYMPUS XCELLENCE RT microscope.

Where [3] appears, read: HFDIO Experiment 1, 16 weeks on HFD.
Setting [4] is: HFDIO Experiment 1, 16 weeks on NCD.

Take “IL-22: interleukin-22; recombinant murine IL-22 (R&D SYSTEMS) in the mouse experiments”: the “production of ROS and NO induced by IFN-γ, IL-1β, IL-23, IL-24 and palmitate” value with human pancreatic islets is “protected human islets from the production of ROS and NO”. In addition, the “time to almost complete clearance from serum” value in series [1] is listed as at most 60 min. Moreover, the “reduction in adipocyte 6-NBDG uptake vs insulin from islets of normal chow fed mice” value in the series with 3T3 adipocytes was 11%. Further, in series [2] (HFD), the “body weight during treatment” value is given as “progressively lost weight during treatment without changing food consumption”. Besides, in series [2] (HFD, after 3 weeks treatment), the “hepatic Hspa5 mRNA” value is given as “decreased substantially”. For the same substance, the “fasted serum proinsulin:insulin ratio” value in series [2] (HFD, end of treatment) is listed as “decreased the fasted serum proinsulin:insulin ratio”. Besides, the “reduction of serum proinsulin” value in series [2] (HFD, fasted, end of treatment) is 92%. Also, in series [2] (HFD, immunostaining), the “decrease of islet proinsulin” value is reported as 64%, the “reduction of Grp78 in the β-cell region of islets” value came to 75% and the β-cell insulin stores entry is given as “returned to levels in non-obese mice”. For the same substance, in series [2] (HFD, two weeks of treatment), the “reduction of the increase in IPGTT area under the curve (AUC glucose)” value was determined as 82%. Moreover, in series [2] (setting [3]), the “Body weight (% original)” value came to 129 ± 9 % original, the Fasting blood glucose was 8.8 ± 0.9 mmol/L, the “Fasting serum insulin concentration” value worked out at 1.1 ± 0.5 ng/mL and the “Fasting serum proinsulin concentration” value worked out at 9.5 ± 3.8 pmol/L. Moreover, in series [2] (setting [4]), the “Body weight (% original)” value was 118 ± 3 % original, the Fasting blood glucose came to 8.9 ± 0.8 mmol/L, the “Fasting serum insulin concentration” value came to 0.5 ± 0.1 ng/mL and the “Fasting serum proinsulin concentration” value is “Not detectable”.

The values above are taken from patent US10695406B2, “Modulation of cellular stress using a B-cell oxidative and/or endoplasmic reticulum stress inhibitor and a targeting agent” (THE UNIVERSITY OF QUEENSLAND, priority 2014, dated 2020).
